Test results: PMC3945819, “Ligand-Dependent Dynamics of the Active-Site Lid in Bacterial Dimethylarginine Dimethylaminohydrolase” (Biochemistry, 2014)
Where a chain is given by its changes, count along the chain named. “Also recorded” adds a separate entry of the source.

Legend:
[1] = target: T1, DM-PaDDAH (Arg40Glu/Arg98His double mutant PaDDAH) (Pseudomonas aeruginosa, UniProt Q9I4E3, R40E/R98H); experiment: NMR 15N,1H-HSQC ligand titration of DM-PaDDAH; format: binding; details: for binding of byproduct to the protein by NMR titration: separate NMR titrations
T1 construct: the 254 residue DM-PaDDAH; polyhistidine (cleaved yes); made in house; host or cells: Escherichia coli BL21 (DE3)
T1 sequence (Q9I4E3 1-254 R40E/R98H): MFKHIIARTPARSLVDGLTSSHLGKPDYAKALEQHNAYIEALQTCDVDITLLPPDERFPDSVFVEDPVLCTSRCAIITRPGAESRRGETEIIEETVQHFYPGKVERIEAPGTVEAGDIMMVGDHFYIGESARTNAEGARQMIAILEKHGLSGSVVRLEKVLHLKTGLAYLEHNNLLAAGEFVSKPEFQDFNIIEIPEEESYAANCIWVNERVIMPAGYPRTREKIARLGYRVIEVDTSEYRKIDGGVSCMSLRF
Description: (§1) For NMR measurements, the protein samples were prepared at 0.8 mM concentration (for resonance assignments and relaxation measurements) or 0.3 mM (for ligand titrations) in buffer A, supplemented with 10% v/v D2O. Saturating concentrations of L-citrulline were included in the bound state samples: 15 mM for DM-PaDDAH and 1.0 mM for TM-PaDDAH. A variety of NMR spectrometers were used during this work: resonance assignments were obtained from 3D triple resonance data sets (HNCA, HNCACB, CBCACONH, HNCO, HN(CA)CO)[12] obtained at either 600 or 700 MHz ^1H frequency. Two-dimensional ^15N, ^1H-HSQC experiments to monitor ligand binding were recorded using a 700 MHz instrument. ^15N relaxation measurements[13],[14] were performed at both 600 and 800 MHz. The majority of the data sets were recorded using a cryogenically cooled triple resonance probe, with the sample temperature maintained at a calibrated 25 °C. The pulse sequences employed H2O-selective “flip-back” pulses and WATERGATE to minimize the effects of H^N-resonance cross-saturation.[15],[16] Ligand-induced chemical shift perturbations differences for ligand titrations were computed using the formula Δδ = [(Δδ^1H^N)^2 + (Δδ^15N/5)^2]^1/2.

[2] = target: T2, TM-PaDDAH (Arg40Glu/Arg98His/Cys249Ser triple mutant PaDDAH) (Pseudomonas aeruginosa, UniProt Q9I4E3, C249S/R40E/R98H); experiment: NMR 15N,1H-HSQC ligand titration of TM-PaDDAH; format: binding; details: NMR peak intensity titration (Gly24, Glu158, Lys159), 0.3 mM TM-PaDDAH, 25 °C; read-out: dissociation constant KD^(TM/L-cit)
T2 construct: polyhistidine (cleaved yes); made in house; host or cells: Escherichia coli BL21 (DE3)
T2 sequence (Q9I4E3 1-254 R40E/R98H/C249S): T1 sequence (Q9I4E3 1-254 R40E/R98H) with C249S
Description: as §1

MDCC-Thr19Cys TM-PaDDAH = target: T3, MDCC-Thr19Cys TM-PaDDAH (Pseudomonas aeruginosa, UniProt Q9I4E3, C249S/R40E/R98H/T19C); experiment: MDCC fluorescence titration, Thr19Cys variant; format: binding; details: static MDCC fluorescence titration, 25 °C, buffer A; fluorescence decreased; read-out: equilibrium dissociation constant
T3 construct: polyhistidine (cleaved yes); made in house; host or cells: Escherichia coli BL21 (DE3)
T3 sequence (Q9I4E3 1-254 T19C/R40E/R98H/C249S): T1 sequence (Q9I4E3 1-254 R40E/R98H) with T19C, C249S
Description: (§2) DM- or TM-PaDDAH constructs were mutated to contain an additional, solvent-exposed Cys residue at residue positions corresponding to Thr19, Ser 20, Ser84, and Asp244. Following expression, the purified proteins were each incubated in buffer A with 1 mM dithiothreitol (DTT) for 0.5 h. The sample was then passed through a desalting PD-10 column (GE Healthcare) in buffer A and concentrated to 100 μM. N-[2-(1-Maleimidyl)ethyl]-7-(diethylamino)coumarin-3-carboxamide (MDCC)[32] dissolved in DMF (20 mM) was added to a 2-fold excess, and the solution was incubated for 1 h. The reaction mixture was passed again through a fresh desalting column to remove unreacted label. The labeled protein concentration was measured by spectrophotometry (ε430 (MDCC) = 46 800 M^–1 cm^–1, ε280(MDCC) = 7470 M^–1 cm^–1, ε280(PaDDAH) = 18 910 M^–1 cm^–1). Formation of the product was assessed by electrospray ionization mass spectrometry.
(§3) PaDDAH fluorescence spectra were measured at 25 °C on an FP-6300 spectrofluorometer (Jasco Ltd.) in buffer A. MDCC fluorescence was excited at 430 nm and emission was recorded at 476 nm. The change in fluorescence emission intensity with ligand concentration was fit to a 1:1 binding isotherm using nonlinear least-squares Python code written in-house.

[3] = target: T4, MDCC-Ser20Cys TM-PaDDAH (fl-TM-PaDDAH) (Pseudomonas aeruginosa, UniProt Q9I4E3, C249S/R40E/R98H/S20C); experiment: MDCC fluorescence titration, Ser20Cys variant; format: binding
T4 construct: polyhistidine (cleaved yes); made in house; host or cells: Escherichia coli BL21 (DE3)
T4 sequence (Q9I4E3 1-254 S20C/R40E/R98H/C249S): T1 sequence (Q9I4E3 1-254 R40E/R98H) with S20C, C249S
Description: as §2, §3

MDCC-Ser84Cys TM-PaDDAH = target: T5, MDCC-Ser84Cys TM-PaDDAH (Pseudomonas aeruginosa, UniProt Q9I4E3, C249S/R40E/R98H/S84C); experiment: MDCC fluorescence titration, Ser84Cys variant; format: binding; details: static MDCC fluorescence titration, 25 °C, buffer A; fluorescence decreased; read-out: equilibrium dissociation constant
T5 construct: polyhistidine (cleaved yes); made in house; host or cells: Escherichia coli BL21 (DE3)
T5 sequence (Q9I4E3 1-254 R40E/S84C/R98H/C249S): T1 sequence (Q9I4E3 1-254 R40E/R98H) with S84C, C249S
Description: as §2, §3

MDCC-Asp244Cys TM-PaDDAH = target: T6, MDCC-Asp244Cys TM-PaDDAH (Pseudomonas aeruginosa, UniProt Q9I4E3, C249S/D244C/R40E/R98H); experiment: MDCC fluorescence titration, Asp244Cys variant; format: binding; details: static MDCC fluorescence titration, 25 °C, buffer A; fluorescence decreased; read-out: equilibrium dissociation constant
T6 construct: polyhistidine (cleaved yes); made in house; host or cells: Escherichia coli BL21 (DE3)
T6 sequence (Q9I4E3 1-254 R40E/R98H/D244C/C249S): T1 sequence (Q9I4E3 1-254 R40E/R98H) with D244C, C249S
Description: as §2, §3

[4] = target: T4, MDCC-Ser20Cys TM-PaDDAH (fl-TM-PaDDAH); experiment: Stopped-flow fluorescence binding kinetics with fl-TM-PaDDAH
Description: (§4) Stopped-flow experiments were carried out in buffer A at 25 °C using a HiTech SF61 DX2 stopped-flow instrument equipped with a Xe/Hg lamp (TgK Scientific, UK). MDCC fluorescence was excited at 436 nm, and emission was detected by a photomultiplier after a 455 nm cutoff filter (Schott glass). Protein (1 μM) was mixed with the ligand (ADMA or L-citrulline) at various concentrations up to 4 mM. In the mixing cell, concentrations were half these. Each fluorescence time course was fitted to a single exponential function [drawing 1] with the observed first-order rate constant, kobs, and maximum fluorescence change, ΔFmax.
(§5) For mixing L-citrulline with MDCC-Ser20Cys TM-PaDDAH (fl-TM-PaDDAH), the dependence of kobs on L-citrulline concentration ([L-cit]) was linearly fitted for the association reaction: [drawing 2] [drawing 3] For the mixing of L-citrulline with MDCC-Ser20Cys DM-PaDDAH (fl-DM-PaDDAH) conversion of the substrate to products is included, using this reaction scheme: [drawing 4] [drawing 5] where kcat is the rate constant for the conversion of the enzyme–substrate complex to dissociated products. Under the pseudo-first-order conditions of the experiment, where the change in fluorescence was attributed to the formation of the fl-DM-PaDDAH/ADMA complex, the dependence of kobs on ADMA concentration was fitted to a straight-line graph: [drawing 6]

[5] = target: T7, MDCC-Ser20Cys DM-PaDDAH (fl-DM-PaDDAH) (Pseudomonas aeruginosa, UniProt Q9I4E3, R40E/R98H/S20C); experiment: Stopped-flow fluorescence binding kinetics with fl-DM-PaDDAH
T7 construct: the 254 residue DM-PaDDAH; polyhistidine (cleaved yes); made in house; host or cells: Escherichia coli BL21 (DE3)
T7 sequence (Q9I4E3 1-254 S20C/R40E/R98H): T1 sequence (Q9I4E3 1-254 R40E/R98H) with S20C
Description: as §4, §5

wild-type PaDDAH = details: wild-type protein; read-out: Ki^(L-cit); cited from earlier work
TM-PaDDAH = target: T8, TM-PaDDAH (Pseudomonas aeruginosa, UniProt Q9I4E3, C249S/R40E/R98H); experiment: Substrate conversion by TM-PaDDAH observed by 1D 1H NMR; format: biochemical; details: conversion of ADMA to DMA and L-citrulline, high TM-PaDDAH concentration, over hours
T8 construct: polyhistidine (cleaved yes); made in house; host or cells: Escherichia coli BL21 (DE3)
T8 sequence (Q9I4E3 1-254 R40E/R98H/C249S): T1 sequence (Q9I4E3 1-254 R40E/R98H) with C249S
Description: as §1

unmodified DM-PaDDAH = details: estimated previously for unmodified DM-PaDDAH; cited from earlier work
Cys249 = Cys249 (UniProt position 249, DGGVSCMSLRF); details: ligand-free (absence of ligand); cited from earlier work

For `CN` [methylamine], the “binding of byproduct to the protein by NMR titration” value [1] was “did not detectably bind”.

`NC(=O)NCCC[C@H](N)C(=O)O` [L-citrulline] showed a Kd ([1]; NMR chemical shift titration, 0.3 mM DM-PaDDAH, 1:1 model, buffer A pH 7.0, 25 °C, read-out: dissociation constant KD^(DM/L-cit)) of 3600 ± 100 µM, a koff ([1]; from NMR KD and assumed kon similar to kon^(TM/L-cit) and kon^(DM/ADMA), read-out: koff^(DM/L-cit) predicted) of ~500 s⁻¹ and a Kd [2] of 3.5 ± 1.5 µM. It also gave a Kd (MDCC-Thr19Cys TM-PaDDAH) of 10.8 ± 1.1 µM, a Kd ([3]; static MDCC fluorescence titration, 25 °C, buffer A, fluorescence increased, read-out: equilibrium dissociation constant) of 7.2 ± 1.6 µM and a Kd (MDCC-Ser84Cys TM-PaDDAH) of 15.7 ± 2.8 µM. It also gave a Kd (MDCC-Asp244Cys TM-PaDDAH) of 23.5 ± 2.7 µM, a Kd ([4]; from stopped-flow binding kinetics, read-out: predicted equilibrium dissociation constant KD^(TM/L-cit) (= koff/kon)) of 8.4 µM and a koff ([4]; stopped-flow, linear fit of kobs vs concentration, 25 °C, read-out: koff^(TM/L-cit)) of 0.86 s⁻¹. The kon ([4]; stopped-flow, linear fit of kobs vs concentration, 25 °C, read-out: kon^(TM/L-cit)) was 100000 M⁻¹ s⁻¹, the “fluorescence signal for binding to fl-DM-PaDDAH” value [5] was “no signal for binding” and the Ki (wild-type PaDDAH) was 8400 µM.

In the case of `CNC` [dimethylamine], the “binding of byproduct to the protein by NMR titration” value [1] is reported as “did not detectably bind”.

With `CN(C)C(=N)NCCCC(N)C(=O)O` (stereo not drawn) [ADMA, asymmetric N^η,N^η-dimethylarginine] the “fluorescence response / binding of substrate to fl-TM-PaDDAH” value ([3]; low protein concentrations of fluorescence experiments) was “no fluorescence change; also recorded: no evidence of substrate binding or turnover”, the “binding tighter than for the reaction product L-citrulline” value ([5]; KD^(DM/ADMA) versus KD^(DM/L-cit)) was 30 fold and the “koff^(DM/ADMA)” value ([5]; assuming kcat = 0.5 s^–1) was 2.0 s^–1. For the same compound, the “kon^(DM/ADMA)” value ([5]; stopped-flow, linear fit of kobs vs concentration, 25 °C) was 1.8 × 10^5 M^–1 s^–1, the “catalytic activity of the mutant enzyme” value (TM-PaDDAH) was ~0.04 h^–1 and the kcat (unmodified DM-PaDDAH) was 0.5 s^–1.

In the case of “Dimethylarginine dimethylaminohydrolase (PaDDAH) (Pseudomonas aeruginosa)”, the pKa (Cys249) is given as 8.8.
